This is an account of results in ChEMBL document CHEMBL3232855, “The discovery of N-((2H-tetrazol-5-yl)methyl)-4-((R)-1-((5r,8R)-8-(tert-butyl)-3-(3,5-dichlorophenyl)-2-oxo-1,4-diazaspiro[4.5]dec-3-en-1-yl)-4,4-dimethylpentyl)benzamide (SCH 900822): a potent and selective glucagon receptor antagonist” (J Med Chem, 2014).

Molecules are shown by their SMILES. A value given as a limit tells only on which side of the number the result lay.

In test [1] the target is T1, Glucagon receptor (Homo sapiens, UniProt P47871). The test can be described thus: Antagonist activity at human GCGR expressed in CHO cells assessed as inhibition of glucagon-stimulated cAMP production preincubated for 30 mins followed by glucagon induction measured after 45 mins by LANCE assay. It counts as functional, cell-based.
T1 sequence (P47871 whole entry): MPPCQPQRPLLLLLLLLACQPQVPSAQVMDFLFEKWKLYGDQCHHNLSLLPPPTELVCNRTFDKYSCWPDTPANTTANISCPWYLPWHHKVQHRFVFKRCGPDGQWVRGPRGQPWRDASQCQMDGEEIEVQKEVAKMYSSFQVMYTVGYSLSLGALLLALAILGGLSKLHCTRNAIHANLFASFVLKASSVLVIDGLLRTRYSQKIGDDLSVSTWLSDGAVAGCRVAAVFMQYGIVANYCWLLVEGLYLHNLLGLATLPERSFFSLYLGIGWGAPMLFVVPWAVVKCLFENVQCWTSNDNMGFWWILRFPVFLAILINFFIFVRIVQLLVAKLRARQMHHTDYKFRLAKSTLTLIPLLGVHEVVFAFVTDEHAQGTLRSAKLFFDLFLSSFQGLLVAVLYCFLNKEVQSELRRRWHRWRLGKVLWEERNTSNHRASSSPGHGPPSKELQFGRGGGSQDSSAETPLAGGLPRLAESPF
The target in test [2] is Glucagon receptor (Mus musculus, UniProt Q61606). It counts as cell membranes, Liver, Membrane.
Glucagon receptor (Mus musculus, UniProt Q61606), sequence (Q61606 whole entry): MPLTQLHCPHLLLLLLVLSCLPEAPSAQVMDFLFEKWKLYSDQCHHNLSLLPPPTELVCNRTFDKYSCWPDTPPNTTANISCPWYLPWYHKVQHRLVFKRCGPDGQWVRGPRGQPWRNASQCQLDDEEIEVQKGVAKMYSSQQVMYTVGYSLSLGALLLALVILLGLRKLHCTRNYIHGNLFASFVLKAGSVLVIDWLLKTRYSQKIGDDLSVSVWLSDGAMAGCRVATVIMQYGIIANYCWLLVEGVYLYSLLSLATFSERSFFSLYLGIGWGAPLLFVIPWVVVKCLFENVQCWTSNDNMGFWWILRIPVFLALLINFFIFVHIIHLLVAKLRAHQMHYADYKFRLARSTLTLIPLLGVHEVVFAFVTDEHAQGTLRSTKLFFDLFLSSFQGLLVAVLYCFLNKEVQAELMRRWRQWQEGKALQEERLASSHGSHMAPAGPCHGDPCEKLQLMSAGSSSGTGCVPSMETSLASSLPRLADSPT
Description: Displacement of [125I]-glucagon from GCGR in mouse liver membranes after 60 mins by scintillation counting analysis
In test [3] the target is T2, Glucagon-like peptide 1 receptor (Homo sapiens, UniProt P43220). The following applies: CHO, at 10 µM.
T2 sequence (P43220 whole entry): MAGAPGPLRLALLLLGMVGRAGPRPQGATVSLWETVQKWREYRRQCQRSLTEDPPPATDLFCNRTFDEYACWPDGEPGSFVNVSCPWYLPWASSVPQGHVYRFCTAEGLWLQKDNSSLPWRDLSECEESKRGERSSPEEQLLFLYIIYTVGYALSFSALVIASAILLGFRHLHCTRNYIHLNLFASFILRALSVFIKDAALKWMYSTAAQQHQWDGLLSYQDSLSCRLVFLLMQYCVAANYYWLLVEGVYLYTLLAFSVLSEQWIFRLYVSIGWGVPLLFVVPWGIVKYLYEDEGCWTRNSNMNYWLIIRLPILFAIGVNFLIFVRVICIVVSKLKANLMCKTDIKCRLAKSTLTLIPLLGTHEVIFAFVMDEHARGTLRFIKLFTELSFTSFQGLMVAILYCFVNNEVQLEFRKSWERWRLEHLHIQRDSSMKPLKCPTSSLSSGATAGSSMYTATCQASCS
Description: Antagonist activity at human GLP-1R expressed in CHO cells assessed as inhibition of GLP-1-stimulated cAMP production at 10 uM preincubated for 30 mins followed by GLP-1 induction measured after 45 mins by LANCE assay relative to control
For test [4], the target named is T1, Glucagon receptor. Kind of test: biochemical. It counts as cell-based, CHO.
Description: Displacement of [125I]-glucagon from recombinant human GCGR expressed in CHO cells after 60 mins by scintillation counting analysis
Test [5] concerns the target T2, Glucagon-like peptide 1 receptor. The test can be described thus: Antagonist activity at human GLP-1R expressed in CHO cells assessed as inhibition of GLP-1-stimulated cAMP production preincubated for 30 mins followed by GLP-1 induction measured after 45 mins by LANCE assay. It counts as functional, cell-based.
Test [6] concerns Homo sapiens. The test can be described thus: Antidiabetic activity in human assessed as inhibition of exogenous glucagon-stimulated glucose excursion at 200 mg, po qd relative to control. It counts as functional.
Test [7] deals with Homo sapiens. The test can be described thus: Antidiabetic activity in human assessed as inhibition of exogenous glucagon-stimulated glucose excursion at 1000 mg, po qd relative to control. It counts as functional.

The term IC50 denotes the concentration at which inhibition is half-maximal. In general, inhibition refers to the relative decrease from the control value, in per cent. In the case of `CC(C)(C)[C@H]1CC[C@]2(CC1)N=C(c1ccc(C(F)(F)F)cc1)C(=O)N2Cc1ccc(C(=O)NCCC(=O)O)cc1`, the IC50 on Glucagon receptor [1] was 800 nM; against Glucagon receptor [2], 9600 nM. The molecule also had an inhibition in test [3] of less than 50%.
On to `CC(C)(C)[C@H]1CC[C@]2(CC1)N=C(c1ccc(Cl)c(Cl)c1)C(=O)N2Cc1ccc(C(=O)NCCC(=O)O)cc1`, for which, on Glucagon receptor [1], the IC50 stood at 1600 nM. In addition, the inhibition in test [3] was less than 50%.
For the molecule `CC(C)(C)[C@H]1CC[C@]2(CC1)N=C(c1cccc(C(F)(F)F)c1)C(=O)N2Cc1ccc(C(=O)NCCC(=O)O)cc1`, the results for the IC50 at Glucagon receptor [1] and at Glucagon receptor [2] were 510 nM and 10000 nM, respectively. In addition, the inhibition in test [3] was less than 50%.
As for `C[C@H](c1ccc(C(=O)NCc2nnn[nH]2)cc1)N1C(=O)C(c2cc(Cl)cc(Cl)c2)=N[C@]12CC[C@@H](C(C)(C)C)CC2`, the IC50 at Glucagon receptor [4] was 130 nM; at Glucagon receptor [1], 180 nM; on Glucagon receptor [2] it was 400 nM; in test [5], more than 10000 nM. The molecule also gave an inhibition in test [3] of 9%.
Turning to `CC(C)(C)[C@H]1CC[C@]2(CC1)N=C(c1ccccc1)C(=O)N2Cc1ccc(C(=O)NCCC(=O)O)cc1`, the IC50 at Glucagon receptor [1] worked out at 3200 nM. The inhibition in test [3] was less than 50%.
As for `CC(C)(C)[C@H]1CC[C@]2(CC1)N=C(c1ccccc1Cl)C(=O)N2Cc1ccc(C(=O)NCCC(=O)O)cc1`, the IC50 on Glucagon receptor [1] stood at 6800 nM. Further, in test [3], the inhibition is less than 50%.
Turning to `CC(C)(C)[C@H]1CC[C@]2(CC1)N=C(c1ccc(Cl)cc1)C(=O)N2Cc1ccc(C(=O)NCCC(=O)O)cc1`, the IC50 at Glucagon receptor [4] is 940 nM; on Glucagon receptor [1], 1400 nM; against Glucagon receptor [2], more than 10000 nM. Further, the inhibition in test [3] was less than 50%.
With `CC(C)(C)[C@H]1CC[C@]2(CC1)N=C(c1cc(Cl)cc(Cl)c1)C(=O)N2Cc1ccc(C(=O)NCCC(=O)O)cc1`, the IC50 against Glucagon receptor [4] was 520 nM; at Glucagon receptor [1], 290 nM; at Glucagon receptor [2] it was more than 10000 nM. The inhibition in test [3] is less than 50%.
Take `CC(C)(C)[C@H]1CC[C@]2(CC1)N=C(c1ccc(F)cc1)C(=O)N2Cc1ccc(C(=O)NCCC(=O)O)cc1`: the IC50 on Glucagon receptor [1] turned out to be 1900 nM. Besides, in test [3], the inhibition was less than 50%.
As to `CC(C)(C)[C@H]1CC[C@]2(CC1)N=C(c1ccc(OC(F)(F)F)cc1)C(=O)N2Cc1ccc(C(=O)NCCC(=O)O)cc1`, on Glucagon receptor [1], the 50% inhibitory concentration (IC50) amounted to 1900 nM. The molecule further yielded an inhibition in test [3] of less than 50%.
Regarding `CC(C)(C)[C@H]1CC[C@]2(CC1)N=C(c1ccccc1F)C(=O)N2Cc1ccc(C(=O)NCCC(=O)O)cc1`, the IC50 at Glucagon receptor [4] was more than 10000 nM; at Glucagon receptor [1], 730 nM; against Glucagon receptor [2], more than 10000 nM. In addition, in test [3], the inhibition was less than 50%.
In the case of `COc1ccc2cc(-c3cc(-c4cc(Cl)cc(Cl)c4)nn3[C@@H](C)c3ccc(C(=O)NCCC(=O)O)cc3)ccc2c1` [MK-0893], the “inhibition (INH)” value with Homo sapiens [6] came to 59%; in the test with Homo sapiens [7], 100%.
As to `CCCc1c(C(C)C)cc(C(C)C)c(C(C)O)c1-c1ccc(F)cc1` (single isomer, unassigned; (+)), the figures for the “inhibition (INH)” value in the test with Homo sapiens [6] and in the test on Homo sapiens [7] were 59% and 100%, respectively.
`C[C@H](c1ccc(C(=O)NC[C@@H](O)C(=O)O)cc1)N1C(=O)C(c2cc(Cl)cc(Cl)c2)=N[C@]12CC[C@@H](C(C)(C)C)CC2`: the IC50 at Glucagon receptor [4] was 190 nM; at Glucagon receptor [1], more than 10000 nM; against Glucagon receptor [2], 1100 nM; in test [5], more than 10000 nM.
As to `CC(C)(C)CC[C@H](c1ccc(C(=O)NCc2nn[nH]n2)cc1)N1C(=O)C(c2ccc(F)cc2)=N[C@]12CC[C@@H](C(C)(C)C)CC2`, the IC50 against Glucagon receptor [4] is 13 nM; on Glucagon receptor [1] it was 240 nM; against Glucagon receptor [2], 90 nM; in test [5], more than 10000 nM.
For the molecule `CC(C)(C)[C@H]1CC[C@]2(CC1)N=C(c1cccc(Cl)c1)C(=O)N2Cc1ccc(C(=O)NCCC(=O)O)cc1`, the IC50 on Glucagon receptor [4] is 770 nM; on Glucagon receptor [1], 770 nM; against Glucagon receptor [2] it was more than 10000 nM. Further, the inhibition in test [3] is less than 50%.
Take `CC(C)(C)CC[C@H](c1ccc(C(=O)NCc2nn[nH]n2)cc1)N1C(=O)C(c2cccc(F)c2)=N[C@]12CC[C@@H](C(C)(C)C)CC2`: the IC50 against Glucagon receptor [4] is 21 nM; at Glucagon receptor [1] it was 140 nM; at Glucagon receptor [2], 100 nM; in test [5], more than 10000 nM.
